Reference: patent publication US20240425464A1, “Substituted Monohydrazides as Potent Antifungal Agents” (University of Kentucky Research Foundation, priority 2023, published 2024)
In brackets after ≈: the same amount, converted by molar mass.

Columns and labels:
HepG2 cells = assay: In vitro cytotoxicity assay (resazurin); format: cell-based; details: up to 31.3 j·tg mL^−1, 24 h
Description: The antifungal agent amphotericin B (AmB) was purchased from VWR (Radnor PA, USA). AmB was dissolved in DMSO at a final concentration of 5 mg/mL and was stored at −20° C., protected from light. […] For cytotoxicity assays, HepG2 and the mouse macrophage cell line J774A.1 were obtained from University of Kentucky. […] Mammalian cells were grown in Dulbecco's Modified Eagle's Medium (DMEM) (from VWR) with 10% fetal bovine serum (FBS) (from VWR) and 1% Pen/Strep (from ATCC). Cell lines were cultured at 37° C. with 5% CO2 and passaged by trypsinization with 0.05% trypsin: 0.53 mM EDTA (from Sigma-Aldrich).
Cytotoxicity assays were performed as previously described with slight modifications.^3 HepG2, J774A.1, and HEK-293 cells were first thawed from frozen stocks kept in liquid N2 and grown in Dulbecco's modified Eagles's medium (DMEM) containing 10% fetal bovine serum (FBS) and 1% Pen/Strep. […] The 96-well plates were incubated 37° C. with 5% CO2 overnight. […] The medium in the 96-well plates containing the cells was aspirated and replaced by fresh DMEM (100 μL). […] The 96-well plates were further incubated for 24 h at 37° C. with 5% CO2 overnight. To evaluate cell survival, each well was treated with 10 μL (2 mM) of resazurin sodium salt (Sigma-Aldrich, St. Louis, MO, USA) and was incubated for another 6 h. Metabolically active cells can convert resazurin to the highly fluorescent dye, resorufin, and be detected at ?560 excitation and λ590 emission using a SpectraMax M5 plate reader (Molecular Devices, San Jose, CA, USA). Triton X-100® (1%, v/v) was used as positive control; the negative control consisted of cells treated with the delivery vehicle (0.05% DMSO), and the blank control was only the culture medium with 0.05% DMSO without cells. The experiments were performed in quadruplicate.

[1] = test system: Candida krusei AR Bank #397; assay: MIC determination by in vitro antifungal assay; format: cell-based; details: Pichia kudriavzevii; Candida strain AR Bank #397; read-out: MIC
Description: (§1) The antifungal agent amphotericin B (AmB) was purchased from VWR (Radnor PA, USA). AmB was dissolved in DMSO at a final concentration of 5 mg/mL and was stored at −20° C., protected from light. Candida albicans American Type Culture Collection (ATCC) 10231 (strain A), C. albicans ATCC 64124 (B), and C. albicans ATCC MYA-2876 (C) were obtained from Utah State University. C. albicans ATCC 90819 (D), C. albicans ATCC MYA-2310 (E), C. albicans ATCC MYA-1237 (F), C. albicans ATCC MYA-1003 (G), Candida glabrata ATCC 2001 (H), Candida krusei ATCC 6258 (I), Candida parapsilosis ATCC 22019 (J), Cryptococcus neoformans ATCC MYA-895 (M), Aspergillus terreus ATCC MYA-3633 (N), and Aspergillus flavus ATCC MYA-3631 (0) were obtained from the American Type Culture Collection (ATCC; Manassas, VA, USA). Aspergillus nidulans ATCC 38163 (P) was obtained from University of Kentucky. Clinically derived Aspergillus fumigatus NRRL 163 (Q), A. fumigatus NRRL 5109 (R), and A. fumigatus NRRL 6113 (S) were obtained from Northern Regional Research Laboratory (NRRL). Candida auris 384 (K), C. auris 390 (L), and fungal strains 381-400 (including 10 C. auris (AR Bank #381-390), 3 Candida duobushaemulonii (AR Bank #391, AR Bank #392, and AR Bank #394), 2 Candida haemulonii (AR Bank #393 and AR Bank #395), 1 Kodameae ohmeri (AR Bank #396), 1 C. krusei (AR Bank #397), 1 Candida lusitaniae (AR Bank #398), and 2 Saccharomyces cerevisiae strains (AR Bank #399 and AR Bank #400)) were part of a larger fungal library from the AR Bank maintained by the Centers for Disease Control and Prevention (CDC; Atlanta, GA, USA). Filamentous fungi and yeasts were cultivated at 35° C. in RPMI 1640 medium (with L-glutamine, without sodium bicarbonate, Sigma-Aldrich, St. Louis, MO) buffered to a pH of 7.0 with 0.165 M morpholinepropanesulfonic acid (MOPS) buffer (Sigma-Aldrich). For cytotoxicity assays, HepG2 and the mouse macrophage cell line J774A.1 were obtained from University of Kentucky. The human embryonic kidney cell line, HEK-293, was bought from the ATCC. Mammalian cells were grown in Dulbecco's Modified Eagle's Medium (DMEM) (from VWR) with 10% fetal bovine serum (FBS) (from VWR) and 1% Pen/Strep (from ATCC). Cell lines were cultured at 37° C. with 5% CO2 and passaged by trypsinization with 0.05% trypsin: 0.53 mM EDTA (from Sigma-Aldrich).
(§2) From the actively growing yeast culture, 100 µL were then transferred to 900 μL of RPMI 1640 medium and re-adjusted to achieve OD600 of 0.12 (˜1×10^6 CFU/mL). The cell suspension was further diluted to achieve 1:100 in RPMI 1640 medium.

[2] = test system: Candida haemulonii AR Bank #393; assay: MIC determination by in vitro antifungal assay; format: cell-based; details: Candidozyma haemuli, read-out: MIC
Description: as §1, §2

[3] = test system: Candida lusitaniae AR Bank #398; assay: MIC determination by in vitro antifungal assay; format: cell-based; details: Clavispora lusitaniae; Candida strain AR Bank #398; read-out: MIC
Description: as §1, §2

[4] = test system: Kodameae ohmeri AR Bank #396; assay: MIC determination by in vitro antifungal assay; format: cell-based; details: strain AR Bank #396; read-out: MIC
Description: as §1, §2

[5] = test system: Candida haemulonii AR Bank #395; assay: MIC determination by in vitro antifungal assay; format: cell-based; details: Candidozyma haemuli, read-out: MIC
Description: as §1, §2

[6] = test system: Candida duobushaemulonii AR Bank #392; assay: MIC determination by in vitro antifungal assay; format: cell-based; details: Candidozyma duobushaemuli, read-out: MIC
Description: as §1, §2

[7] = test system: Candida duobushaemulonii AR Bank #391; assay: MIC determination by in vitro antifungal assay; format: cell-based; details: Candidozyma duobushaemuli, read-out: MIC
Description: as §1, §2

[8] = test system: Candida duobushaemulonii AR Bank #394; assay: MIC determination by in vitro antifungal assay; format: cell-based; details: Candidozyma duobushaemuli, read-out: MIC
Description: as §1, §2

[9] = test system: Saccharomyces cerevisiae AR Bank #399; assay: MIC determination by in vitro antifungal assay; format: cell-based; details: read-out: MIC
Description: as §1, §2

[10] = test system: panel of ten C. auris strains (AR Bank #381-390); assay: MIC determination, summary over the C. auris panel; format: cell-based, Candida auris; details: Candidozyma auris; against all ten C. auris strains tested (AR Bank #381-390)
Description: as §1, §2

Compound | toxicity (HepG2 cells) | MIC [1] | MIC [2] | MIC [3] | MIC [4] | MIC [5] | MIC [6] | MIC [7] | MIC [8] | MIC [9] | MIC [10]
O=C(NNc1cccc(Cl)c1)c1cnccn1 [Compound 9b] | no toxicity | 0.12 µg/mL (≈ 0.483 µM) | 0.24 µg/mL (≈ 0.965 µM) | 0.49 µg/mL (≈ 1.97 µM) | 0.12 µg/mL (≈ 0.483 µM) | 0.24 µg/mL (≈ 0.965 µM) | 0.12 µg/mL (≈ 0.483 µM) | 0.24 µg/mL (≈ 0.965 µM) | 0.12 µg/mL (≈ 0.483 µM) | 0.98 µg/mL (≈ 3.94 µM) | 0.06 to 1.95 µg/mL (≈ 0.241 to 7.84 µM)
O=C(NNc1ccc(F)cc1F)c1cnccn1 [Compound 9g] | no toxicity | 1.95 µg/mL (≈ 7.79 µM) | 0.24 µg/mL (≈ 0.959 µM) | 3.9 µg/mL (≈ 15.6 µM) | 0.98 µg/mL (≈ 3.92 µM) | 1.95 µg/mL (≈ 7.79 µM) | 0.24 µg/mL (≈ 0.959 µM) | 0.49 µg/mL (≈ 1.96 µM) | 7.8 µg/mL (≈ 31.2 µM) | 7.8 µg/mL (≈ 31.2 µM) | 0.12 to 7.8 µg/mL (≈ 0.48 to 31.2 µM)
COc1ccc(NNC(=O)c2cnccn2)cc1 [Compound 9f] | no toxicity | 0.49 µg/mL (≈ 2.01 µM) | 0.24 µg/mL (≈ 0.983 µM) | 0.98 µg/mL (≈ 4.01 µM) | 0.98 µg/mL (≈ 4.01 µM) | 0.49 µg/mL (≈ 2.01 µM) | 0.49 µg/mL (≈ 2.01 µM) | 0.49 µg/mL (≈ 2.01 µM) | 0.49 µg/mL (≈ 2.01 µM) | 0.98 µg/mL (≈ 4.01 µM) | 0.06 to 1.95 µg/mL (≈ 0.246 to 7.98 µM)
O=C(NNc1ccc(F)cc1)c1ccccn1 [Compound 2d] | no toxicity | 0.24 µg/mL (≈ 1.04 µM) | 0.24 µg/mL (≈ 1.04 µM) | 1.95 µg/mL (≈ 8.43 µM) | 0.24 µg/mL (≈ 1.04 µM) | 0.12 µg/mL (≈ 0.519 µM) | 0.49 µg/mL (≈ 2.12 µM) | 0.49 µg/mL (≈ 2.12 µM) | 0.24 µg/mL (≈ 1.04 µM) | 3.9 µg/mL (≈ 16.9 µM) | 0.12 to 7.8 µg/mL (≈ 0.519 to 33.7 µM)
